# Assay results from patent US9657022B2, “7-OXO-1,6-diazabicyclo[3.2.1]octane derivatives and their use as antibacterial agents” (WOCKHARDT LIMITED, priority 2014, dated 2017).
# How the values were obtained:
# Test in all cases: Antibacterial activity (MIC), agar dilution per CLSI
# Format in all cases: cell-based
# E. cloacae M 20 = settings: Enterobacter cloacae, M20
# Experimental: (§1) The biological activity of representative compounds according to the invention against various bacterial strains was investigated. In a typical study, overnight grown bacterial cultures were diluted appropriately and inoculated on the agar media containing doubling dilutions of the test compounds. Observations for growth or no growth was performed after 16-20 hours of incubation at 35±2° C. in the ambient air. The overall procedure was performed as per Clinical and Laboratory Standards Institute (CLSI) recommendations, (Clinical and Laboratory Standards Institute (CLSI), Performance Standards for Antimicrobial Susceptibility Testing, 20th Informational Supplement, M07-A9, Volume 32, No. 2, 2012). Molten Mueller Hinton Agar (BD, USA) containing serial dilutions of each antibacterial agent were poured on to the plates and allowed to solidify. Appropriate suspensions from the freshly grown cultures were prepared in normal saline so that about 10^4 CFU/spot of the organism was delivered on to the drug containing agar plates using automated multipoint inoculator (Mast, UK). The plates were incubated in Biochemical oxygen demand (BOD) incubator at 37° C. for 18 hours and then examined for growth.
# (§2) Table 3 details the antibacterial activity of representative compound of Formula (I), (2S,5R)-sulfuric acid mono-{2-[N′-(2-(S)-pyrrolidin-2-yl-acetyl)-hydrazinocarbonyl]-7-oxo-1,6-diaza-bicyclo[3.2.1]oct-6-yl}ester (Compound of Example 1), against various Multi Drug Resistant (MDR) Gram-negative bacterial strains. The activities are expressed as Minimum Inhibitory Concentrations (MICs) (mcg/ml).
# E. coli 7 MP = settings: Escherichia coli
# Experimental: as §1, §2
# E. coli M 49 = settings: Escherichia coli, M49
# Experimental: as §1, §2
# E. coli M 50 = settings: Escherichia coli, M50
# Experimental: as §1, §2
# E. coli NCTC 13352 = settings: Escherichia coli, NCTC13352
# Experimental: as §1, §2
# K. pneumoniae S 21 = settings: Klebsiella pneumoniae, S21
# Experimental: as §1, §2
# P. aeruginosa 2779 = settings: Pseudomonas aeruginosa
# Experimental: as §1, §2
# P. aeruginosa ATCC 27853 = settings: Pseudomonas aeruginosa, ATCC27853
# Experimental: as §1, §2
# P. aeruginosa R 20 = settings: Pseudomonas aeruginosa, R20
# Experimental: as §1, §2
smiles,measurement,setting,value
"O=C(C[C@@H]1CCCN1)NNC(=O)[C@@H]1CC[C@@H]2CN1C(=O)N2OS(=O)(=O)O [Example 1, (2S,5R)-Sulfuric acid mono-{2-[N′-(2-(S)-pyrrolidin-2-yl-acetyl)-hydrazinocarbonyl]-7-oxo-1,6-diaza-bicyclo[3.2.1]oct-6-yl}ester]",MIC,E. cloacae M 20,0.5 µg/mL
same,MIC,E. coli 7 MP,1 µg/mL
same,MIC,E. coli M 49,2 µg/mL
same,MIC,E. coli M 50,0.5 µg/mL
same,MIC,E. coli NCTC 13352,0.5 µg/mL
same,MIC,K. pneumoniae S 21,2 µg/mL
same,MIC,P. aeruginosa 2779,8 µg/mL
same,MIC,P. aeruginosa ATCC 27853,8 µg/mL
same,MIC,P. aeruginosa R 20,16 µg/mL
